Measurements as given in PubChem BioAssay AID200 (DTP/NCI, 2004).
“And” between values parts separate entries of the source, which are not always exact repeats. Equal entries are not always repeated. Inconclusive results and toxic doses are left out. The calls were made as follows: active = survival T/C of 150% or more; inactive = T/C below 125% in these data.

Test system: B6C3F1 mice, B16 melanoma ip, median survival T/C
Assay: NCI In Vivo Anticancer Drug Screen. Data for tumor model B16 Melanoma (intraperitoneal) in B6C3F1 mice
Conditions: endpoint: median survival time, schedule: Q01DX009 (ip), higher = longer survival
Description: The antitumor activity of compounds was measured in mice bearing transplantable tumors. Survival or tumor size were measured and the results are expressed as the measurement made in the treated group (T) divided by the measurement made in the vehicle treated control group (C). The tumor model used in this assay is B16 Melanoma (intraperitoneal) in B6C3F1 mice

[1] = dose: 1.25 mg/kg/injection, vehicle: Klucel (hydroxypropylcellulose) (HPC)
[2] = dose: 2.5 mg/kg/injection, vehicle: Klucel (hydroxypropylcellulose) (HPC)
[3] = dose: 100.0 mg/kg/injection, vehicle: saline with Tween-80
[4] = dose: 200.0 mg/kg/injection, vehicle: saline with Tween-80
[5] = dose: 400.0 mg/kg/injection, vehicle: saline with Tween-80
[6] = dose: 12.5 mg/kg/injection, vehicle: saline with Tween-80
[7] = dose: 25.0 mg/kg/injection, vehicle: saline with Tween-80
[8] = dose: 50.0 mg/kg/injection, vehicle: saline with Tween-80
[9] = dose: 100.0 mg/kg/injection, vehicle: Klucel (hydroxypropylcellulose) (HPC)
[10] = dose: 200.0 mg/kg/injection, vehicle: Klucel (hydroxypropylcellulose) (HPC)
[11] = dose: 400.0 mg/kg/injection, vehicle: Klucel (hydroxypropylcellulose) (HPC)
[12] = dose: 25.0 mg/kg/injection, vehicle: Klucel (hydroxypropylcellulose) (HPC)
[13] = dose: 50.0 mg/kg/injection, vehicle: Klucel (hydroxypropylcellulose) (HPC)

Measured: T/C

C[PH+](C)C.C[PH+](C)C.[Au]
inactive: dose: 0.31 mg/kg/injection, vehicle: Klucel (hydroxypropylcellulose) (HPC) 115 % of control | dose: 0.62 mg/kg/injection, vehicle: Klucel (hydroxypropylcellulose) (HPC) 117 % of control | [1] 114 % of control | [2] 112 % of control

OC(c1ccccc1)C(O)C(c1ccccc1)N1CCCCC1 (centres undefined)
inactive: [3] 100 % of control | [4] 102 % of control | [5] 111 % of control

CC(C)(C)OC(=O)N1CCCC1C(=O)O (centres undefined)
inactive: dose: 22.5 mg/kg/injection, vehicle: Klucel (hydroxypropylcellulose) (HPC) 100 % of control | dose: 45.0 mg/kg/injection, vehicle: Klucel (hydroxypropylcellulose) (HPC) 102 % of control | dose: 90.0 mg/kg/injection, vehicle: Klucel (hydroxypropylcellulose) (HPC) 90 % of control

Brc1ccc(C[N+]23CN4CN(CN(C4)C2)C3)cc1
inactive: [6] 100 % of control | [7] 98 % of control | [8] 101 % of control | [3] 108 % of control | [4] 112 % of control

CC(=O)OC1=C(Cl)CCc2ccccc21
inactive: dose: 37.5 mg/kg/injection, vehicle: saline with Tween-80 115 % of control | dose: 75.0 mg/kg/injection, vehicle: saline with Tween-80 96 % of control | dose: 150.0 mg/kg/injection, vehicle: saline with Tween-80 98 % of control

CN(N=O)C(=O)N[C@@H](C=O)[C@@H](O)[C@H](O)[C@H](O)CO
inactive: dose: 12.5 mg/kg/injection, vehicle: other 115 % of control | dose: 25.0 mg/kg/injection, vehicle: other 120 % of control

CCCCC(NC(=O)OC(C)(C)C)C(=O)O (centres undefined)
inactive: [9] 97 % of control | [10] 111 % of control | [11] 90 % of control

CCOC(=O)NC(N)=O
inactive: [8] 101 % of control | [3] 117 % of control | [4] 102 % of control | [5] 105 % of control

Clc1ccc(C2SC=Cc3ccccc32)cc1 (centres undefined)
inactive: [12] 114 % of control | [13] 114 % of control | [9] 118 % of control | [10] 112 % of control | [11] 103 % of control

NNC(=O)c1ccncc1
inactive: dose: 6.25 mg/kg/injection, vehicle: saline 112 % of control | dose: 12.5 mg/kg/injection, vehicle: saline 99 % of control | dose: 25.0 mg/kg/injection, vehicle: saline 99 % of control | dose: 50.0 mg/kg/injection, vehicle: saline 105 % of control | dose: 64.0 mg/kg/injection, vehicle: saline 100 % of control | dose: 100.0 mg/kg/injection, vehicle: saline 112 % of control | dose: 128.0 mg/kg/injection, vehicle: saline 99 % of control

C=Cc1cnc([N+](=O)[O-])n1C
inactive: dose: 12.5 mg/kg/injection, vehicle: Klucel (hydroxypropylcellulose) (HPC) 99 % of control and 106 % of control | [12] 103 % of control and 107 % of control | [13] 100 % of control and 105 % of control | [9] 109 % of control and 106 % of control | [10] 110 % of control and 100 % of control

Oc1ccc2ccccc2c1N=Nc1ccc(Cl)cc1
inactive: [8] 115 % of control and 118 % of control | [3] 114 % of control and 103 % of control | [4] 92 % of control and 101 % of control | [5] 109 % of control

Nc1nc(-c2ccc(Cl)cc2)c(Br)c(=O)[nH]1
inactive: dose: 13.0 mg/kg/injection, vehicle: saline with Tween-80 104 % of control | dose: 26.0 mg/kg/injection, vehicle: saline with Tween-80 110 % of control | dose: 52.0 mg/kg/injection, vehicle: saline with Tween-80 98 % of control | dose: 104.0 mg/kg/injection, vehicle: saline with Tween-80 120 % of control

Cc1cc(NCCN(C(C)C)C(C)C)nc(/N=C(\N)Nc2ccc(Cl)c(C(F)(F)F)c2)n1
inactive: [1] 111 % of control | [2] 106 % of control | dose: 5.0 mg/kg/injection, vehicle: Klucel (hydroxypropylcellulose) (HPC) 100 % of control | dose: 10.0 mg/kg/injection, vehicle: Klucel (hydroxypropylcellulose) (HPC) 86 % of control | dose: 20.0 mg/kg/injection, vehicle: Klucel (hydroxypropylcellulose) (HPC) 96 % of control | dose: 40.0 mg/kg/injection, vehicle: Klucel (hydroxypropylcellulose) (HPC) 98 % of control

O=C1C(=O)c2cccnc2-c2ncccc21
inactive: dose: 0.75 mg/kg/injection, vehicle: Klucel (hydroxypropylcellulose) (HPC) 104 % of control | dose: 0.78 mg/kg/injection, vehicle: Klucel (hydroxypropylcellulose) (HPC) 102 % of control | dose: 1.5 mg/kg/injection, vehicle: Klucel (hydroxypropylcellulose) (HPC) 115 % of control and 107 % of control | dose: 1.56 mg/kg/injection, vehicle: Klucel (hydroxypropylcellulose) (HPC) 115 % of control and 98 % of control | dose: 3.0 mg/kg/injection, vehicle: Klucel (hydroxypropylcellulose) (HPC) 119 % of control and 92 % of control and 98 % of control | dose: 3.12 mg/kg/injection, vehicle: Klucel (hydroxypropylcellulose) (HPC) 114 % of control and 100 % of control | dose: 6.0 mg/kg/injection, vehicle: Klucel (hydroxypropylcellulose) (HPC) 113 % of control and 87 % of control and 108 % of control | dose: 6.25 mg/kg/injection, vehicle: Klucel (hydroxypropylcellulose) (HPC) 109 % of control

CN(N=O)C(=O)NCCCCCNC(=O)N(C)N=O
inactive: [6] 98 % of control | [7] 100 % of control | [8] 109 % of control | [3] 110 % of control

N[C@@H](Cc1c[nH]c2ccccc12)C(=O)Nc1nncs1
inactive: dose: 50.0 mg/kg/injection, vehicle: suspension in saline 94 % of control | dose: 100.0 mg/kg/injection, vehicle: suspension in saline 95 % of control | dose: 200.0 mg/kg/injection, vehicle: suspension in saline 103 % of control | dose: 400.0 mg/kg/injection, vehicle: suspension in saline 106 % of control | dose: 800.0 mg/kg/injection, vehicle: suspension in saline 109 % of control

COc1ccc(OC)c(Cc2cnc3nc(N)nc(N)c3c2C)c1
inactive: dose: 6.25 mg/kg/injection, vehicle: water 106 % of control | dose: 12.5 mg/kg/injection, vehicle: water 104 % of control | dose: 25.0 mg/kg/injection, vehicle: water 99 % of control | dose: 50.0 mg/kg/injection, vehicle: water 93 % of control
